Each structure is given as a SMILES string.

We go through one compound from patent publication US7109150B2, “Trifluoromethylpyrrolecarboxamides and trifluoromethylpyrrolethioamides as fungicides” (Syngenta Crop Protection, Inc., priority 1999, dated 2006).

Regarding `Cn1cc(C(=O)Nc2ccccc2-c2ccc(Cl)s2)c(C(F)(F)F)c1` [Example 3, 1-Methyl-4-trifluoromethyl-1H-pyrrole-3-carboxylic acid [2′-(5′-chloro-thienyl)-2-benzamide]], the melting point fell in the range of 139 to 141 °C.
